Measured values taken from patent publication US20120094939A1, “ANTI-VIRAL COMPOUNDS, COMPOSITIONS AND METHODS” (priority 2007, published 2012).

What was measured:
[1] = test system: OR6 cells; experiment: Secondary assay cell viability (CellTiter-Glo); details: 48 hours
Description: Secondary Assays-Hit Validation. Several hits from primary HTS, as well as functionally related compounds, were purchased from Sigma (St. Louis, Mo.), Calbiochem (San Diego, Calif.), and Microsource (Gaylordsville, Conn.). […] Ten mM of stock solutions of the individual compounds to be tested was prepared in the appropriate solvent (DMSO, ethanol, or H2O, according to the manufacturer's information) and stored at −20° C. Cells were seeded into 96-well plates at a density of 2000 cells/well in 100 μL of medium. The cells were incubated for 24 hours at 37° C. to obtain the optimal level of adherence. Solutions of candidate hit compounds were added to wells to achieve final concentrations of 0.1, 1, 10, 50, and 100 μM. The final concentration of DMSO or ethanol in every well was 1% or less by volume. Mock solutions were used as a negative control. PEG-IFN and ribavirin were used as positive controls at various concentrations, alone and in combination. The plates were then incubated at 37° C. with 5% CO2 for 48 hours before they were analyzed. Luminescent signal was generated using the Renilla luciferase assay kit (Promega) according to the manufacturer's instructions. Signal was then detected using a LumiCount (Packard BioScience Company) luminometer. Cell viability was assessed using CellTiter-Glo (Promega), following the manufacturer's instructions. All experiments were performed in triplicate.
Secondary Assays-Data Analysis. Values were presented as a percentage of mock treated control, which was arbitrarily set at 100%. Data were expressed as the mean (±) SD. […] Synergy calculations were performed using CalcuSyn (Biosoft; Cambridge, England).
Secondary Assays—Hit Validation: 10 mM of stock solutions of the individual compounds to be tested were prepared in DMSO and stored at −20° C. Cells were seeded into 96-well plates at a density of 2,000 cells/well in 100 μl of medium. The cells were incubated for 24 hours at 37° C. to obtain the optimal level of adherence. Solutions of candidate hit compounds were added to wells to achieve varying final concentrations between 0.01 and 100 μM. The final concentration of DMSO or ethanol in every well was 1% or less by volume. Mock solutions were used as a negative control. Peginterferon-alfa-2b (PEG-Intron; Schering Corp.; Kenilworth, N.J.) and ribavirin (Sigma; St. Louis, Mo.) were used as positive controls at various concentrations, alone and in combination. The plates were then incubated at 37° C. with 5% CO2 for 48 hours before they were analyzed. Luminescent signal was generated using the Renilla luciferase assay kit (Promega; Madison, Wis.) according to the manufacturer's instructions. Signal was then detected using a LumiCount™ (Packard BioScience Company; Downers Grove, Ill.) luminometer. Cell viability was assessed using CellTiter-Glo (Promega; Madison, Wis.), following the manufacturer's instructions. All experiments were performed in triplicate. Values were presented as a percentage of mock treated control, which was arbitrarily set at 100%. Data were expressed as the mean±SD.
Secondary Assays—Data Analysis: Values were presented as a percentage of mock treated control, which was arbitrarily set at 100%. Data were expressed as the mean±SD.

[2] = test system: Huh7/Rep-Feo HCV replicon (HCV RNA replication); assay type: cell-based, Hepatitis C virus (strain HCV—N, genotype 1b); details: approximately 10-50 μM, most at 33 μM; for R-CompZ, compositeZ score for reporter gene assay: Table 2 antiviral hits of DOS set, 48 hours

Row | Compound | concentrations with no significant/observed cytotoxicity [1] | R-CompZ, compositeZ score for reporter gene assay [2] | cytotoxicity (in words) [1] | primary screen hit result (in words) ([2]; known bioactives library) | concentrations at which cytotoxic effects were exhibited [1]
1 | Cc1cc(C)c(-c2cc([C@H](C)O/N=C3/[C@H]4CCn5c(=O)n(-c6ccccc6)c(=O)n5[C@H]4[C@H](O)[C@@H]4O[C@H]34)on2)c(C)c1 [BUCMLD-B10A11] | ≤ 10 µM | −4.7324 |  |  | 
2 | O=C1C2(CO)C=C(Br)C(CC2c2ccccc2)[C@@]12CO2 (some centres unmarked) [SM_A6B5_2P100] | ≤ 30 µM | −3.1341 |  |  | 
3 | COc1cc2c(cc1OC)-c1c/c(=N\c3c(C)cc(C)cc3C)n(C)c(=O)n1CC2 [trequinsin, reference compound] |  |  | significant cytotoxicity only at the higher concentrations of 50 and 100 μM | not identified as a hit | 
4 | CC(=O)OC[C@H]1O[C@H](CCO/N=C2/[C@H]3CCn4c(=O)n(-c5ccccc5)c(=O)n4[C@H]3[C@H](O)[C@@H]3O[C@H]23)C=C[C@@H]1OC(C)=O [BUCMLD-B10A3] |  | −4.6336 |  |  | above 7 μM
5 | O=C1C2C=C(I)C(CC2OCCCCO)[C@@]12CO2 (some centres unmarked) [SM_A5B3_2P141] |  | −2.5923 |  |  | 
6 | Cc1cc2c(nc1C)CCCN2CC(C)O/N=C1/[C@H]2CCn3c(=O)n(-c4ccccc4)c(=O)n3[C@H]2[C@H](O)[C@@H]2O[C@H]12 (some centres unmarked) [BUCMLD-B10A5] |  | −3.0849 |  |  | ≥ 30 µM
